Reference: PMC9351488 (Proceedings of the National Academy of Sciences of the …, 2022)
Where a name gives a salt, the structure may show the parent alone.

Experiments:
Format in all cases: in vivo, mouse
[1] = test system: spinal cord of naïve WT mice; experiment: Spinal cord immunohistochemistry; settings: i.t. daily for 7 d, H-20 30 nmol or morphine 2 nmol
[2] = test system: mice; experiment: Conditioned place preference; settings: i.t. H-20 30 nmol or morphine 2 nmol
[3] = test system: mice; experiment: Rotarod test; settings: i.t. H-20 30 nmol or morphine 2 nmol, 15 to 120 min
[4] = test system: mice; experiment: Open field test; settings: i.t., 30 min before test
[5] = test system: naïve WT mice; experiment: Acute itch behaviors; settings: i.t., counted within 30 min, morphine 2 nmol
[6] = test system: mice; experiment: Antinociceptive tolerance in CFA model; settings: i.t. 7 consecutive days, H-20 30 nmol or morphine 20 nmol

CN1CC[C@]23c4c5ccc(O)c4O[C@H]2[C@@H](O)C=C[C@H]3[C@H]1C5 [morphine, Morphine hydrochloride]
microglial activation in spinal cord [1]: induced significant microglial activation
number of c-Fos–positive neurons in spinal cord [1]: markedly increased the number of c-Fos–positive neurons
CPP response [2]: significant increase in the drug-treated chamber
time on rotarod [3]: did not change the length of time
time in center area and frequency of entry into central zone (anxiety) [4]: No intergroup differences were observed
itch-related scratching behaviors [5]: significantly evoked itch-related scratching behaviors
antiallodynic effect after repeated injection (tolerance) [6]: significantly decreased on test day 7
